Reference: publication PMC5488394, “30 YEARS OF THE MINERALOCORTICOID RECEPTOR: Mineralocorticoid receptor antagonists: 60 years of research and development” (The Journal of Endocrinology, 2017)
Read-outs that look alike come from different tables or passages of the source.

Experiments:
[1] = cited from earlier work; for absolute change in nocturnal BP: day 90, patients with nocturnal hypertension, ref Ruilope et al. 2016
S810L MR mutant = tested on: S810L MR mutant; parameters: method as in Geller et al. 2000, Amazit et al. 2015; details: ref Geller et al. 2000, Amazit et al. 2015; cited from earlier work
[2] = parameters: method as in Filippatos et al. 2016; details: 1066 HFrEF patients; ref Filippatos et al. 2016; cited from earlier work
MR = tested on: MR; parameters: method as in Amazit et al. 2015; details: ref Amazit et al. 2015; cited from earlier work
[3] = parameters: method as in Pitt et al. 2013; details: ref Pitt et al. 2013, cited from earlier work
[4] = quantitative whole-body autoradiography, [14C]-labeled, healthy rats; ref Kolkhof et al. 2014; cited from earlier work
DOCA/salt rats = tested on: DOCA/salt rats; parameters: method as in Kolkhof et al. 2014; details: ref Kolkhof et al. 2014, cited from earlier work
[5] = biological target: T1, ligand binding domain of MR (Homo sapiens, UniProt P08235); assay: functional cell-based MR transactivation assay in CHO-K1 cells; details: duplicate
T1 construct: expressed in transfected cells; host or cells: CHO-K1
T1 sequence (P08235 726-964 limits assumed): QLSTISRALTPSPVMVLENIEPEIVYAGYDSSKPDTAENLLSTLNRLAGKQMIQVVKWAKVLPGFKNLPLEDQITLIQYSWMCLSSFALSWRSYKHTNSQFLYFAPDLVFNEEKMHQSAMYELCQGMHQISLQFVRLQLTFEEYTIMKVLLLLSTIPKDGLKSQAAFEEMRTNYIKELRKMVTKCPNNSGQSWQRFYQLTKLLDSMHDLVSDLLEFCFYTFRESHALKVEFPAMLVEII

[6] = tested on: MR vs all other steroid hormone receptors; details: ref Bärfacker et al. 2012, Pitt et al. 2012; cited from earlier work
[7] = tested on: SRC-1 recruitment at the promoter of the SCNN1A gene; parameters: method as in Amazit et al. 2015; details: ref Amazit et al. 2015; cited from earlier work
[8] = tested on: mouse model of pressure overload-induced HF; parameters: method as in Grune et al. 2016; details: ref Grune et al. 2016; cited from earlier work

For CCOc1ncc(C)c2c1[C@H](c1ccc(C#N)cc1OC)C(C(N)=O)=C(C)N2 [finerenone], the “absolute change in nocturnal BP” value ([1]; 10 mg dose group) is given as −9.5 mmHg, the “absolute change in nocturnal BP” value ([1]; 20 mg dose group) is given as −12.0 mmHg and the albuminuria ([1]; 7.5, 10, 15 and 20 mg, 90 days, on top of SoC, ref Bakris et al. 2015) is given as “dose-dependent, significant reductions”. The “effect on S810L MR mutant” value (S810L MR mutant) was “block”, the “outcome including death and CV hospitalization vs eplerenone” value [2] was “nominally improved outcome” and the “delay of aldosterone-induced nuclear translocation of MR” value (MR) was “more efficiently than spironolactone”. For the same compound, the “decrease of BNP, NT-pro-BNP and urinary albumin vs spironolactone” value ([3]; 5 and 10 mg OD vs spironolactone 25 or 50 mg/day) was “at least as effective as spironolactone”, the “incidence of hyperkalemia vs spironolactone” value ([3]; 5 and 10 mg OD) was “significantly lower incidence” and the “increases in serum potassium vs spironolactone” value ([3]; 5 and 10 mg OD) was “significantly lower increases”. For the same compound, the “distribution into cardiac and kidney tissues” value [4] was “balanced distribution”, the “systolic blood pressure vs 100 mg/kg eplerenone” value (DOCA/salt rats; 10 mg/kg finerenone, head-to-head) was “significantly lower” and the “reduction of cardiac hypertrophy, pro-BNP and proteinuria vs eplerenone” value (DOCA/salt rats; equinatriuretic doses) was “more efficiently than eplerenone”. For the same compound, the IC50 ([5]; agonist DOCA 10 nM, read-out: IC50 vs DOCA as agonist) was 46 nM, the IC50 ([5]; agonist corticosterone 1 nM, read-out: IC50 vs corticosterone as agonist) was 24 nM and the IC50 ([5]; agonist cortisol 10 nM, read-out: IC50 vs cortisol as agonist) was 5 nM. The “selectivity toward MR” value [6] was “at least 500 fold”, the “mode of action on SRC-1 recruitment” value [7] was “inverse agonist” and the “prevention of myocardial hypertrophy vs eplerenone” value [8] was “more pronounced prevention of myocardial hypertrophy”.
